Assay results: patent US20170190671A1, “BIS(ARYL)CATECHOL DERIVATIVES AS HERBICIDES” (E I DU PONT DE NEMOURS AND COMPANY, priority 2014, published 2017)

Key:
Test in all cases: Test E preemergence
Assay type in all cases: in vivo
Settings in all cases: scale 0 to 100
[1] = test system: Brazilian crabgrass (Digitaria horizontalis)
Excerpt: (§1) Seeds of plant species selected from corn (Zea mays), soybean (Glycine max), velvetleaf (Abutilon theophrasti), cocklebur (common cocklebur, Xanthium strumarium), lambsquarters (Chenopodium album), wild poinsettia (Euphorbia heterophylla), palmer pigweed (Amaranthus palmeri), waterhemp (common waterhemp, Amaranthus rudis), surinam grass (Brachiaria decumbens), large (Lg) crabgrass (Digitaria sanguinalis), Brazilian crabgrass (Digitaria horizontalis), fall panicum (Panicum dichotomiflorum), giant foxtail (Setaria faberii), green foxtail (Setaria viridis), goosegrass (Eleusine indica), johnsongrass (Sorghum halepense), ragweed (common ragweed, Ambrosia elatior), barnyardgrass (Echinochloa crus-galli), sandbur (southern sandbur, Cenchrus echinatus), arrowleaf sida (Sida rhombifolia), Italian ryegrass (Lolium multiflorum), dayflower (Virginia (VA) dayflower, Commelina virginica), field bindweed (Convolvulus arvensis), morningglory (Ipomoea coccinea), nightshade (eastern black nightshade, Solanum ptycanthum), kochia (Kochia scoparia), yellow nutsedge (Cyperus esculentus), horseweed (Conyza canadensis), and hairy beggarticks (Bidens pilosa), were planted into a silt loam soil and treated preemergence with test chemicals formulated in a non-phytotoxic solvent mixture which included a surfactant.
(§2) At the same time, plants from these crop and weed species and also waterhemp_RES1, (ALS & Triazine resistant common waterhemp, Amaranthus rudis), and waterhemp_RES2, (ALS & HPPD resistant common waterhemp, Amaranthus rudis) were planted in pots containing Redi-Earth® planting medium (Scotts Company, 14111 Scottslawn Road, Marysville, Ohio 43041) comprising spaghnum peat moss, vermiculite, wetting agent and starter nutrients were treated with postemergence applications of test chemicals formulated in the same manner. Plants ranged in height from 2 to 18 cm for postemergence treatments (1- to 4-leaf stage). Treated plants and controls were maintained in a greenhouse for 14 to 21 days, after which time all species were compared to controls and visually evaluated. Plant response ratings, summarized in Table E, are based on a scale of 0 to 100 where 0 is no effect and 100 is complete control. A dash (-) response means no test result.

[2] = test system: Italian ryegrass (Lolium multiflorum)
Excerpt: as §1, §2

[3] = test system: arrowleaf sida (Sida rhombifolia)
Excerpt: as §1, §2

[4] = test system: barnyardgrass (Echinochloa crus-galli)
Excerpt: as §1, §2

[5] = test system: corn (Zea mays)
Excerpt: as §1, §2

[6] = test system: dayflower (Virginia (VA) dayflower, Commelina virginica)
Excerpt: as §1, §2

[7] = test system: fall panicum (Panicum dichotomiflorum)
Excerpt: as §1, §2

[8] = test system: field bindweed (Convolvulus arvensis)
Excerpt: as §1, §2

[9] = test system: giant foxtail (Setaria faberii)
Excerpt: as §1, §2

[10] = test system: goosegrass (Eleusine indica)
Excerpt: as §1, §2

[11] = test system: green foxtail (Setaria viridis)
Excerpt: as §1, §2

[12] = test system: hairy beggarticks (Bidens pilosa)
Excerpt: as §1, §2

[13] = test system: kochia (Kochia scoparia)
Excerpt: as §1, §2

[14] = test system: lambsquarters (Chenopodium album)
Excerpt: as §1, §2

[15] = test system: large (Lg) crabgrass (Digitaria sanguinalis)
Excerpt: as §1, §2

[16] = test system: morningglory (Ipomoea coccinea)
Excerpt: as §1, §2

[17] = test system: nightshade (eastern black nightshade, Solanum ptycanthum)
Excerpt: as §1, §2

[18] = test system: palmer pigweed (Amaranthus palmeri)
Excerpt: as §1, §2

[19] = test system: sandbur (southern sandbur, Cenchrus echinatus)
Excerpt: as §1, §2

[20] = test system: soybean (Glycine max)
Excerpt: as §1, §2

[21] = test system: yellow nutsedge (Cyperus esculentus)
Excerpt: as §1, §2

Fc1ccc(F)c(Oc2ncc(Cl)cn2)c1Oc1ncc(Cl)cn1 [Compound 34, 2,2′-[(3,6-difluoro-1,2-phenylene)bis(oxy)]bis[5-chloropyrimidine]]
98: Plant response rating, Crabgrass, Brazil ([1]; 125 g ai/ha) | Plant response rating, Arrowleaf Sida ([3]; 62 g ai/ha) | Plant response rating, Panicum, Fall ([7]; 62 g ai/ha) | Plant response rating, Crabgrass, Large ([15]; 62 g ai/ha) | Plant response rating, Crabgrass, Large ([15]; 125 g ai/ha)
90: Plant response rating, Dayflower, VA ([6]; 125 g ai/ha) | Plant response rating, Lambsquarters ([14]; 62 g ai/ha)
80: Plant response rating, Arrowleaf Sida ([3]; 31 g ai/ha) | Plant response rating, Panicum, Fall ([7]; 31 g ai/ha) | Plant response rating, Foxtail, Giant ([9]; 125 g ai/ha) | Plant response rating, Goosegrass ([10]; 125 g ai/ha) | Plant response rating, Nightshade ([17]; 62 g ai/ha)
95: Plant response rating, Crabgrass, Brazil ([1]; 62 g ai/ha) | Plant response rating, Kochia ([13]; 31 g ai/ha) | Plant response rating, Nightshade ([17]; 125 g ai/ha)
75: Plant response rating, Beggarticks ([12]; 125 g ai/ha)
35: Plant response rating, Crabgrass, Brazil ([1]; 31 g ai/ha) | Plant response rating, Ryegrass, Italian ([2]; 62 g ai/ha)
25: Plant response rating, Crabgrass, Large ([15]; 31 g ai/ha) | Plant response rating, Soybean ([20]; 62 g ai/ha)
10: Plant response rating, Foxtail, Green ([11]; 31 g ai/ha) | Plant response rating, Sandbur ([19]; 62 g ai/ha) | Plant response rating, Soybean ([20]; 31 g ai/ha)
50: Plant response rating, Panicum, Fall ([7]; 16 g ai/ha) | Plant response rating, Foxtail, Giant ([9]; 31 g ai/ha) | Plant response rating, Beggarticks ([12]; 16 g ai/ha) | Plant response rating, Morningglory ([16]; 62 g ai/ha) | Plant response rating, Nightshade ([17]; 16 g ai/ha) | Plant response rating, Nightshade ([17]; 31 g ai/ha) | Plant response rating, Pigweed, Palmer ([18]; 31 g ai/ha)
5: Plant response rating, Goosegrass ([10]; 62 g ai/ha)
60: Plant response rating, Arrowleaf Sida ([3]; 16 g ai/ha) | Plant response rating, Barnyardgrass ([4]; 125 g ai/ha) | Plant response rating, Beggarticks ([12]; 31 g ai/ha) | Plant response rating, Soybean ([20]; 125 g ai/ha)
70: Plant response rating, Ryegrass, Italian ([2]; 125 g ai/ha) | Plant response rating, Foxtail, Green ([11]; 125 g ai/ha) | Plant response rating, Beggarticks ([12]; 62 g ai/ha) | Plant response rating, Lambsquarters ([14]; 31 g ai/ha) | Plant response rating, Pigweed, Palmer ([18]; 62 g ai/ha) | Plant response rating, Sandbur ([19]; 125 g ai/ha)
100: Plant response rating, Arrowleaf Sida ([3]; 125 g ai/ha) | Plant response rating, Panicum, Fall ([7]; 125 g ai/ha) | Plant response rating, Kochia ([13]; 62 g ai/ha) | Plant response rating, Kochia ([13]; 125 g ai/ha) | Plant response rating, Lambsquarters ([14]; 125 g ai/ha) | Plant response rating, Pigweed, Palmer ([18]; 125 g ai/ha)
20: Plant response rating, Barnyardgrass ([4]; 62 g ai/ha) | Plant response rating, Dayflower, VA ([6]; 62 g ai/ha) | Plant response rating, Morningglory ([16]; 31 g ai/ha)
65: Plant response rating, Foxtail, Green ([11]; 62 g ai/ha) | Plant response rating, Morningglory ([16]; 125 g ai/ha)
30: Plant response rating, Dayflower, VA ([6]; 31 g ai/ha)
85: Plant response rating, Foxtail, Giant ([9]; 62 g ai/ha)
0: Plant response rating, Crabgrass, Brazil ([1]; 16 g ai/ha) | Plant response rating, Ryegrass, Italian ([2]; 16 g ai/ha) | Plant response rating, Ryegrass, Italian ([2]; 31 g ai/ha) | Plant response rating, Barnyardgrass ([4]; 16 g ai/ha) | Plant response rating, Barnyardgrass ([4]; 31 g ai/ha) | Plant response rating, Corn ([5]; 16 g ai/ha) | Plant response rating, Corn ([5]; 31 g ai/ha) | Plant response rating, Corn ([5]; 62 g ai/ha) | Plant response rating, Corn ([5]; 125 g ai/ha) | Plant response rating, Dayflower, VA ([6]; 16 g ai/ha) | Plant response rating, Field Bindweed ([8]; 16 g ai/ha) | Plant response rating, Field Bindweed ([8]; 31 g ai/ha) | Plant response rating, Field Bindweed ([8]; 62 g ai/ha) | Plant response rating, Field Bindweed ([8]; 125 g ai/ha) | Plant response rating, Foxtail, Giant ([9]; 16 g ai/ha) | Plant response rating, Goosegrass ([10]; 16 g ai/ha) | Plant response rating, Goosegrass ([10]; 31 g ai/ha) | Plant response rating, Foxtail, Green ([11]; 16 g ai/ha) | Plant response rating, Kochia ([13]; 16 g ai/ha) | Plant response rating, Lambsquarters ([14]; 16 g ai/ha) | Plant response rating, Crabgrass, Large ([15]; 16 g ai/ha) | Plant response rating, Pigweed, Palmer ([18]; 16 g ai/ha) | Plant response rating, Sandbur ([19]; 16 g ai/ha) | Plant response rating, Sandbur ([19]; 31 g ai/ha) | Plant response rating, Soybean ([20]; 16 g ai/ha) | Plant response rating, Nutsedge, Yellow ([21]; 16 g ai/ha) | Plant response rating, Nutsedge, Yellow ([21]; 31 g ai/ha) | Plant response rating, Nutsedge, Yellow ([21]; 62 g ai/ha) | Plant response rating, Nutsedge, Yellow ([21]; 125 g ai/ha)
